The source made the active and inactive calls. No cut-off for these calls is given here.
Tests used:
Fusarium [1] = assay: Antifungal activity against Fusarium recini assessed as zone of inhibition at 10 ug after 48 hrs; format: functional; conditions: read-out: DIZ
Fusarium oxysporum [2] = assay: Antifungal activity against Fusarium oxysporum lycopersici assessed as zone of inhibition at 10 ug after 48 hrs; format: functional, Fusarium oxysporum f. sp. lycopersici; conditions: read-out: DIZ
Escherichia coli [3] = assay: Antibacterial activity against Escherichia coli assessed as zone of inhibition at 10 ug after 24 hrs; format: functional; conditions: for zone of inhibition at 10 µg/disc: read-out: DIZ
Fusarium [4] = assay: Antifungal activity against Fusarium recini after 48 hrs; format: functional
Fusarium oxysporum [5] = assay: Antifungal activity against Fusarium oxysporum lycopersici after 48 hrs; format: functional, Fusarium oxysporum f. sp. lycopersici
Bacillus subtilis [6] = assay: Antibacterial activity against Bacillus subtilis assessed as zone of inhibition at 10 ug after 24 hrs; format: functional; conditions: for zone of inhibition at 10 µg/disc: read-out: DIZ
Bacillus subtilis [7] = assay: Antibacterial activity against Bacillus subtilis after 24 hrs; format: functional
Escherichia coli [8] = assay: Antibacterial activity against Escherichia coli after 24 hrs; format: functional
Escherichia coli [9] = assay: Antibacterial activity against Escherichia coli at 25 to 100 ug after 24 hrs; format: functional, organism-based
Bacillus subtilis [10] = assay: Antibacterial activity against Bacillus subtilis at 25 to 100 ug after 24 hrs; format: functional, organism-based

Compound	zone of inhibition at 10 µg/disc (Fusarium [1]) [mm]	zone of inhibition at 10 µg/disc (Fusarium oxysporum [2]) [mm]	diameter of the inhibition zone (DIZ) (Escherichia coli [3])	MIC (Fusarium [4]) [µg]	MIC (Fusarium oxysporum [5]) [µg]	diameter of the inhibition zone (DIZ) (Bacillus subtilis [6])	MIC (Bacillus subtilis [7]) [µg]	MIC (Escherichia coli [8]) [µg]	zone of inhibition at 10 µg/disc (Escherichia coli [3]) [mm]	zone of inhibition at 10 µg/disc (Bacillus subtilis [6]) [mm]	Activity (Escherichia coli [9])	Activity (Bacillus subtilis [10])
Cc1ccc(-n2nnc3cccnc32)c(C)c1	6	6	inactive	100	75	inactive	–	–	–	–	–	–
COc1ccc(-n2nnc3cnc(Cl)cc32)cc1	7	6	inactive	25	50	inactive	–	–	–	–	–	–
Fc1ccc(-n2nnc3cccnc32)cc1	5	6	–	50	75	–	25	100	11	12	–	–
c1cnc2c(c1)nnn2C1CCOCC1	5	3	inactive	50	75	inactive	–	–	–	–	–	–
COc1ccc(-n2nnc3cccnc32)cc1	3	2	inactive	50	100	inactive	–	–	–	–	–	–
Clc1cc2c(cn1)nnn2C1CCOCC1	6	6	inactive	25	50	inactive	–	–	–	–	–	–
CN[C@@H]1[C@H](O[C@H]2[C@H](O[C@H]3[C@H](O)[C@@H](O)[C@H](N=C(N)N)[C@@H](O)[C@@H]3N=C(N)N)O[C@@H](C)[C@]2(O)C=O)O[C@@H](CO)[C@H](O)[C@H]1O [STREPTOMYCIN]	–	–	–	–	–	–	25	25	13	16	–	–
Oc1ncnc2c1nnn2Cc1ccccc1	6	5	inactive	50	100	inactive	–	–	–	–	inactive	inactive
Clc1cc2c(cn1)nnn2Cc1ccccc1	7	1	–	25	100	–	25	25	10	13	–	–
Fc1ccc(-n2nnc3cnc(Cl)cc32)cc1	7	3	inactive	50	50	inactive	–	–	–	–	–	–

From ChEMBL document CHEMBL4261597, “1,2,3-Triazole fused with pyridine/pyrimidine as new template for antimicrobial agents: Regioselective synthesis and identification of potent N-heteroarenes” (2018)
